From EP0029617A1, “Use of tertiary heterocyclic amines as synergists in pesticides; derivatives of cycloamines” (priority 1979, dated 1981)
Like-named read-outs stand apart in the source and are kept apart here.

What was measured:
[1] = test system: Drosophila melanogaster; assay: whole plant or invertebrate; type: in vivo; details: for Wirksamkeit in % Substanz +Dimeti-lan: 1 ml 0,05%ige amine solution + 1 ml 0,0001%ige Dimetilan solution; for Wirksamkeit in % Substanz +Dimethoat: 1 ml 0,05%ige amine solution + 1 ml 0,005 %ige Dimethoat solution (Dimethoat : amine 1 : 10); for Faktor der Wirkungssteigerung bei Dime-methoat / Faktor der Wirkungssteigerung bei Dimi-tilan: calculated after subtracting the amine's own effect; for Faktor der Wirkungssteigerung bei Dimi-tilan: amine 0,05 % + Dimetilan 0,0001 %
From the text: Die insektiziden Wirkungen von tertiären heterocyclischen Aminen und die synergistischen Eigenschaften mit dem Phosphorsäureester Dimethoat und dem Carbamat Dimetilan, getestet an Drosophila melanogaster.
Die Versuche wurden in Petrischalen von 10 cm Durchmesser ausgeführt. Es wurden zunächst die gerade noch wirksamen Konzentrationen von Dimethoat und Dimetilan bestimmt. Für Dimethoat wurde 0,005 % und für Dimetilan 0,0001 % als günstige Versuchskonzentration ermittelt. Die Aminkomponente wurde mit 1 ml 0,05%iger Lösung + 1 ml Aceton auf insektizide Wirkung getestet. Zur Bestimmung des Synergismus wurde 1 ml 0,05%ige Aminlösung + 1 ml 0,005.%ige Dimethoatlösung, bzw. + 1 ml 0,0001%ige Dimetilanlösung pro Petrischale eingesetzt. Alle Verdünnungen wurden mit Aceton als Lösungsmittel hergestellt.
In den Petrischalen wurden die Lösungen am Boden gut verteilt und 30 min lang antrocknen lassen. In jede Petrischale wurden 20 mit Kohlendioxid betäubte Drosophila eingezählt. Alle 5 min, insgesamt 12 mal, wurde die Anzahl der toten Drosophila ausgezählt und notiert. Die Zahlen wurden aufsummiert und im Verhältnis zur möglichen Zahl an toten Drosophila in % angegeben, wobei der Tot aller Drosophila innerhalb der ersten 5 min 100 % Wirkung entspricht. Jeder Versuch wurde mit 3 Wiederholungen durchgeführt. In Tabelle 1 sind die Mittelwerte der Ergebnisse zusammengestellt.
Zur Ermittlung des synergistischen Faktors wurden die Einzelwerte pro Zeiteinheit durch die für Dimethoat, bzw. Dimetilan für die jeweilige Zeiteinheit gefundenen Werte dividiert. Die Werte für jede Zeiteinheit wurden summiert und durch die Anzahl der Zeiteinheiten dividiert. Die Versuche wurden bei sonst stets gleichbleibenden Bedingungen bei Temperaturen von 20 - 22°C ausgeführt. Die Kontrollversuche zeigten bei Versuchsabschluß stets 0 % Mortalität. Hat die Substanz selbst eine insektizide Wirkung, so wurden die Wirkungsfaktoren für Dimethoat und Dimetilan nach Abzug des Substanzwertes berechnet und in der Tabelle aufgeführt.
Im Beispiel 1 war das Verhältnis von Insektizid und erfindungsgemäßem Amin 1 : 10 in den Gemischen mit Dimethoat. In der Tabelle 2 sind Verhältnisse von 1 : 1, 1 : 2 und 1 : 0,2 bei Versuchen mit Dimethoat aufgeführt, dabei wurde das Dimethoat immer in einer Konzentation von 0,005 % eingesetzt. Die Tabelle zeigt, daß auch bei diesen Verhältnissen noch eine gute synergistische Wirkung vorhanden ist, und es keineswegs einer großen überdosierung des Amins bedarf.

[2] = test system: Kornkäfer (sitophilus granarius L); assay: whole plant or invertebrate; type: in vivo; details: for mortality at 1000 µg/mL / Wirksamkeit in % Substanz allein: amine 1 mg/ml in Aceton mixed 1 : 1 with Aceton, 2 ml per dish, 25 weevils, dead counted after 3 h; for mortality at 1000 µg/mL: read-out: Wirksamkeit in % Substanz allein; for Wirksamkeit in % Substanz +Ripcord: amine 1 mg/ml mixed 1 : 1 with Ripcord 0,01 mg/ml; for Wirksamkeit in % Substanz +Talcord: amine 1 mg/ml mixed 1 : 1 with Talcord 0,01 mg/ml
In short: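 Acetone solutions (2 ml) were dried as films in 15 cm Petri dishes and 25 grain weevils added per dish, with a filter inserted after 1 h. Dead beetles were counted at 3 h at 19–21 °C, and % mortality and the synergistic factor were derived.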

[3] = Drosophila melanogaster, 1 ml 0,05%ige amine solution + 1 ml Aceton per dish, 20 flies, dead counted every 5 min, 12 times, mean values, read-out: Wirksamkeit in % Substanz allein
[4] = amine 0,05 % + Dimethoat 0,005 %
[5] = Pyrethroid : Amin 1 : 5, amine 0,05 mg/ml, 180 min
[6] = Pyrethroid : Amin 1 : 10, amine 0,1 mg/ml, 180 min
[7] = Sitophilus granarius, 3 h, amine 0,1 mg/ml (as for Pyrethroid : Amin 1 : 10), read-out: % Wirkung Substanz allein
[8] = amine 1 mg/ml + Ripcord 0,01 mg/ml
[9] = amine 1 mg/ml + Talcord 0,01 mg/ml

Compound | mortality at 1000 µg/mL ([2]; Sitophilus granarius) [%] | Wirksamkeit in % Substanz +Ripcord ([2]; 3 h) | Wirksamkeit in % Substanz +Talcord ([2]; 3 h) | Synergistischer Faktor bei Ripcord [2, 8] | Synergistischer Faktor bei Talcord [2, 9] | Wirksamkeit in % Substanz allein [2] [%] | other results
c1cc2c(cc1CN1CCCCC1)OCO2 [N-Piperonyl-piperidin] | 0 | 90,8% | 64,0% |  |  |  | Wirksamkeit in % Substanz +Dimeti-lan [1]: 52,1%; Wirksamkeit in % Substanz +Dimethoat [1]: 65,0%; mortality at 0.05 % [1, 3]: 51.7%; mortality at 0.05 % ([1]; Drosophila melanogaster, amine 0,05 %, read-out: Sub-stanz allein): 28.8%; mortality at 0.005 % ([1]; Drosophila melanogaster, amine 0,005 %, read-out: Sub-stanz allein): 0%; Substanz + Dime-thoat ([1]; amine 0,05 % + Dimethoat 0,005 %, Dimethoat : Amin 1 : 10): 60,0%; Faktor der Wirkungssteigerung bei Dime-methoat [1, 4]: 1,55; Faktor der Wirkungs-steigerung ([1]; amine 0,05 %, Dimethoat : Amin 1 : 10): 3,63; Substanz + Dime-thoat ([1]; amine 0,005 % + Dimethoat 0,005 %, Dimethoat : Amin 1 : 1): 26,3%; Faktor der Wirkungs-steigerung ([1]; amine 0,005 %, Dimethoat : Amin 1 : 1): 3,06; % Wirkung Substanz +Ripcord [2, 5]: 84,0%; % Wirkung Substanz +Talcord [2, 5]: 54,8%; % Wirkung Substanz +Ripcord [2, 6]: 74,8%; % Wirkung Substanz +Talcord [2, 6]: 24,0%; mortality at 100 µg/mL [2, 7]: 0%; mortality at 50 µg/mL ([2]; Sitophilus granarius, 3 h, amine 0,05 mg/ml (as for Pyrethroid : Amin 1 : 5), read-out: % Wirkung Substanz allein): 0%
Cc1cc(OC(=O)N(C)C)nn1C(=O)N(C)C [Dimetilan, reference compound] |  |  |  |  |  |  | mortality at 0.0001 % ([1]; Drosophila melanogaster, read-out: Wirksamkeit von Dimetilan): 2.5%
C(=CC1CCCCC1)CN1CCCC1 [N-(3-Cyclohexyl-propen-(2))-pyrrolidin] |  |  |  |  |  |  | Wirksamkeit in % Substanz +Dimeti-lan [1]: 0%; Wirksamkeit in % Substanz +Dimethoat [1]: 22,5%; Wirksamkeit in % Substanz allein ([1]; 1 ml 0,05%ige amine solution + 1 ml Aceton per dish, 20 flies, dead counted every 5 min, 12 times, mean values): 0%; Faktor der Wirkungssteigerung bei Dime-methoat [1, 4]: 2,86
CCCCCCCCCCN1CCCCC1CC (centres unmarked) [N-1-Decyl-2-ethyl-piperidin] |  |  |  |  |  |  | Wirksamkeit in % Substanz +Dimeti-lan [1]: 56,3%; Wirksamkeit in % Substanz +Dimethoat [1]: 55,8%; mortality at 0.05 % [1, 3]: 35%; Faktor der Wirkungssteigerung bei Dime-methoat [1, 4]: 2,42; Faktor der Wirkungssteigerung bei Dimi-tilan [1]: 8,52
CCCCCCCCCCN1CCCCC1C (centres unmarked) [N-Decyl-2-methyl-piperidin] |  |  |  |  |  |  | Wirksamkeit in % Substanz +Dimeti-lan [1]: 77,9%; Wirksamkeit in % Substanz +Dimethoat [1]: 66,7%; mortality at 0.05 % [1, 3]: 61.3%; Faktor der Wirkungssteigerung bei Dimi-tilan [1]: 2,87
Clc1ccc(CN2CCCC2)cc1 [N-4-Chlor-benzyl-pyrrolidin] |  | 100,0% | 22,8% | 3,17 | 2,35 | 0 | Synergistischer Faktor bei Ripcord ([2]; Pyrethroid : Amin 1 : 10): 3,09; Synergistischer Faktor bei Talcord ([2]; Pyrethroid : Amin 1 : 10): 7,55; % Wirkung Substanz +Ripcord [2, 6]: 97,2%; % Wirkung Substanz +Talcord [2, 6]: 73,2%; % Wirkung Substanz allein ([2]; amine 0,1 mg/ml (as for Pyrethroid : Amin 1 : 10), 180 min): 0%
CCCCCCCCN1CCCCC1CC (centres unmarked) [N-1-Octyl-2-ethyl-piperidin] | 26.8 | 74,8% | 52,0% | 1,52 | 2,60 |  | 
CC(C)=CCCC(C)=CCCC(C)=CCN1CCCCC1 [N-Farnesyl-piperidin] | 0 | 84,0% | 41,2% | 2,67 | 4,25 |  | 
CCCCCCCCCCCN1CCCCCC1 [N-1-Undecyl-hexamethylenimin] | 0 | 73,1% | 81,2% |  |  |  | % Wirkung Substanz +Ripcord [2, 6]: 92,0%; % Wirkung Substanz +Talcord [2, 6]: 73,2%; mortality at 100 µg/mL [2, 7]: 0%
CCC/C=C(\CC)CN1CCCC1 [cis-3-N-pyrrolidino-methyl-hepten-(3)] |  | 50,8% | 16,0% | 1,61 | 1,65 | 0 | 
C(CCCCCN1CCCC1)CCCCN1CCCC1 [1,10-N,N-Di-pyrrolidino-decan] |  | 80,0% | 29,2% | 2,54 | 3,00 | 0 | 
c1ccc(OCCN2CCCC2)cc1 [N-1-2-phenoxiethyl-pyrrolidin] |  | 53,2% | 28,0% | 1,69 | 2,88 | 0 | 
CCOC(=O)C(CC)N1CCOCC1 (centres unmarked) [2-N-Morpholino-buttersäure-ethylester] |  | 49,2% | 32,0% | 1,56 | 3,30 | 0 | 
CCCCCCCCCN1CCCCC1CC (centres unmarked) [1-n-Nonyl-2-ethyl-piperidin] |  |  |  |  |  |  | Wirksamkeit in % Substanz +Dimeti-lan [1]: 7,9%; Wirksamkeit in % Substanz +Dimethoat [1]: 24,6%; mortality at 0.05 % [1, 3]: 5.8%; Faktor der Wirkungssteigerung bei Dime-methoat [1, 4]: 2,19
c1ccc(CN2CCCC2)cc1 [N-Benzyl-pyrrolidin] | 0 | 77,2% | 16,0% | 2,45 | 1,65 |  | 
c1ccc(COCCN2CCOCC2)cc1 [N-(2-Benzyloxi-ethyl-(1))-morpholin] |  | 50,8% | 32,0% | 1,61 | 3,30 | 0 | 
c1ccc(OCCN2CCCCCC2)cc1 [N-2-Phenoxi-ethyl-(1)-hexa-methylenimin] |  | 85,2% | 49,4% | 2,70 | 5,09 | 0 | 
CC1(C)C(C=C(Cl)Cl)C1C(=O)OC(C#N)c1cccc(Oc2ccccc2)c1 (centres unmarked) [Ripcord, reference compound] |  |  |  |  |  |  | Wirksamkeit von Ripcord ([2]; Ripcord alone, 0,01 mg/ml mixed 1 : 1 with Aceton, 3 h): Wirksamkeit von Ripcord: 31,5%
C(CCCCN1CCCC1)CCCN1CCCC1 [1,8-N,N-Di-pyrrolidino-octan] |  | 88,0% | 64,0% | 2,79 | 6,60 | 0 | 
C#CCN1CCCCC1CC (centres unmarked) [N-1-Propanrgyl-2-ethyl-piperidin] |  | 92,0% | 37,2% | 2,92 | 3,84 | 0 | 
CCCCCN1CCCC1 [N-1-Pentyl-pyrrolidin] | 0 | 74,8% | 100,0% | 2,37 | 10,3 |  | 
O=[N+]([O-])c1ccc(CN2CCCCC2)cc1 [N-4-Nitro-benzyl-piperidin] | 2.8 | 49,2% | 20,0% | 1,47 | 1,77 |  | 
N-Lactosido-pyrrolidin |  | 85,2% | 20,0% | 2,70 | 2,06 | 0 | 
CCCCCCCCCC(C)N1CCCC1 (centres unmarked) [N-2-Undecyl-pyrrolidin] | 56 | 98,8% | 64,0% | 1,36 |  |  | 
